Measured values published in patent US6638938B1, “Method for preventing tissue injury from hypoxia” (Cell Therapeutics, Inc., priority 1993, dated 2003).

Columns and labels:
human neutrophils [1] = assay: neutrophil adherence to nylon fiber; assay type: cell-based
Excerpt: (§1) Human recombinant interleukin-1α (IL-1) was obtained from Hoffmann-LaRoche, Inc. (Nutley, N.J.), frozen inaliquots and thawed daily for use. Ketamine hydrochloride was obtained from Parke-Davis (Morris Plains, N.J.), xylazine from Haver (New York, N.J.), ^125I labeled bovine serum albumin (BSA) from ICN Radiochemicals (Irvine, Calif.), and heparin sodium from Elkins-Sinn, Inc. (Cherry Hill, N.J.). All other reagents were purchased from Sigma Chemical Co. (St. Louis, Mo.). Neutrophils were purified from human blood by well described methods. Venous blood was anticoagulated with heparin and the cellular elements were separated from platelet-rich plasma by centrifugation. Cell pellets were resuspended in platelet-poor plasma and diluted 1:4 with 6% dextran (Pharmacia Fine Chemicals, Piscataway, N.J.) in saline. Red cells were separated from leukocytes by sedimentation. Leukocyte-rich supernatants were then aspirated, underlain with Ficoll-Hypaque (Pharmacia Fine Chemicals), and centrifuged at 275×g to separate neutrophils and monocytes. Sedimented neutrophils were resuspended in Hank's balanced salt solution (HBSS). These preparations contained 94 to 96% neutrophils and 4 to 6% monocytes. All values were compared by analysis of variance and corrected by post hoc Student t tests for differences between groups. A p value of <0.05 was considered significant.
Neutrophil adherence was measured using the nylon fiber technique. Briefly, 50 mg of scrubbed nylon fiber (3-XXX), 3.81 cm type 200 (Travenol Laboratories, Deerfield, Ill.), was packed into the distal 10 mm of the barrels of tuberculin syringes. Ficoll-Hypaque-purified human neutrophils (1×10^7 cells) in plasma (total volume, 0.25 ml) with and without Lisofylline were then placed in the top of the nylon fiber column which was maintained at 37° C. After 90 sec, the plunger was inserted and the samples were eluted. Eluted neutrophils were counted by hemocytometer, and percentages of neutrophils adhering to the nylon fiber were calculated by the following formula: [formula]
(§2) Neutrophil chemotactic activity was determined by Boyden chamber assay and quantitated as the number of migrating PMN/5HPF using zymosan-activated serum (ZAS) as the chemoattractant (Repine et al., J. Reticuloendo. Soc. 24:217, 1978). Neutrophil adherence was assessed by quantitating the percentage of neutrophils adhering to nylon fibers following addition of phorbol myristate acetate (PMA 10-^6M, Sigma) (Rasp et al., J. Reticuloendo. Soc. 25:101, 1979). Neutrophil superoxide production was determined by quantitating superoxide dismutase inhibitable reduction of cytochrome c in response to PMA (10^−6 M) (Berger et al., J. Infectious Dis. 149:413, 1984).

human neutrophils [2] = assay: neutrophil superoxide anion production (cytochrome c reduction); assay type: cell-based
Excerpt: as §1
Release of superoxide anion by neutrophils was determined spectrophotometrically by measuring superoxide dismutase (SOD) inhibitable reduction of horse heart ferricytochrome C (Sigma Chemical Co., St. Louis, Mo.). Briefly, neutrophils (2×10^6) were placed in tubes containing HBSS (sufficient quantity to 2.0 ml), pooled human serum (1%), and SOD (2.98 mg) with and without Lisofylline. These mixtures were divided in half, and one part was incubated at 37° C. and one part at 4° C. After incubation, reaction mixtures were kept at 4° C. and centrifuged at 800×g for 15 min. Absorbance for paired supernatants was measured at 550 nm using a spectrophotometer (Model 35; Beckman Instruments, Inc., Fullerton, Calif.), averaged, and expressed at nanomoles of SOD-inhibitable cytochrome C reduced/20 min. In some experiments, neutrophils were incubated with PMA.
as §2

[3] = Neutrophils + PMA + Lisofylline 0.7 μM
[4] = Neutrophils + PMA + Lisofylline 7 μM
[5] = Neutrophils + PMA + Lisofylline 70 μM
[6] = Neutrophils + PMA + Lisofylline 700 μM

Structure (SMILES): C[C@@H](O)CCCCn1c(=O)c2c(ncn2C)n(C)c1=O [Lisofylline, 1-R-(5-hydroxyhexyl)-3,7-dimethylxanthine]
- Neutrophil Adherence (human neutrophils [1]; [3]): 35.8 ± 4.52 (4)δ %
- Neutrophil Adherence (human neutrophils [1]; [4]): 38.8 ± 1.38 (4)δ %
- Neutrophil Adherence (human neutrophils [1]; [5]): 25.6 ± 2.78 (5)δ %
- Neutrophil Adherence (human neutrophils [1]; [6]): 26.6 ± 6.03 (5)δ %
- stimulated human neutrophil adherence (human neutrophils [1]; PMA 10^-6 M, in vitro): reduced
- Neutrophil Superoxide Production in vitro (human neutrophils [2]; [3]): 9.2 ± 7.8 (4) μM cyto c reduced/30 min
- Neutrophil Superoxide Production in vitro (human neutrophils [2]; [4]): 82.3 ± 5.2 (4) μM cyto c reduced/30 min
- Neutrophil Superoxide Production in vitro (human neutrophils [2]; [5]): 80.6 ± 5.2 (4) μM cyto c reduced/30 min
- Neutrophil Superoxide Production in vitro (human neutrophils [2]; [6]): 92.0 ± 1.1 (4) μM cyto c reduced/30 min
- neutrophil superoxide anion generation (human neutrophils [2]; PMA 10^-6 M, in vitro, whether reduced): not
